Test results as given in PubChem BioAssay (NCI).
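1) Cells in 96-well plates. 2) Compound, 48 h, 5 concentrations. 3) Linear interpolation between surrounding doses. 4) Unreached endpoint = highest concentration. At the GI50, growth is halved. TGI: total growth inhibition.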

Experiments:
Assay in all cases: NCI anticancer screen, dose series, 48 h
M14 melanoma = test system: M14 melanoma
786-0 renal = test system: 786-0 renal
RPMI-8226 leukemia = test system: RPMI-8226 leukemia
HS 578T breast = test system: HS 578T breast
UACC-257 melanoma = test system: UACC-257 melanoma
A498 renal = test system: A498 renal
OVCAR-4 ovarian = test system: OVCAR-4 ovarian
SK-MEL-2 melanoma = test system: SK-MEL-2 melanoma
HOP-62 NSCLC = test system: HOP-62 NSCLC
UACC-62 melanoma = test system: UACC-62 melanoma
OVCAR-3 ovarian = test system: OVCAR-3 ovarian
NCI-H522 lung = test system: NCI-H522 lung
NCI-H226 lung = test system: NCI-H226 lung
RXF 393 renal = test system: RXF 393 renal
U251 CNS = test system: U251 CNS
MCF7 breast = test system: MCF7 breast
CAKI-1 renal = test system: CAKI-1 renal
HOP-92 NSCLC = test system: HOP-92 NSCLC
HCT-15 colon = test system: HCT-15 colon
HCC-2998 colon = test system: HCC-2998 colon
SW-620 colon = test system: SW-620 colon
OVCAR-8 ovarian = test system: OVCAR-8 ovarian
SK-MEL-28 melanoma = test system: SK-MEL-28 melanoma
BT-549 breast = test system: BT-549 breast
SF-295 CNS = test system: SF-295 CNS
COLO 205 colon = test system: COLO 205 colon
MDA-MB-231 breast = test system: MDA-MB-231 breast
SK-MEL-5 melanoma = test system: SK-MEL-5 melanoma
HL-60(TB) leukemia = test system: HL-60(TB) leukemia
SR leukemia = test system: SR leukemia
HCT-116 colon = test system: HCT-116 colon
SN12C renal = test system: SN12C renal
K-562 leukemia = test system: K-562 leukemia
NCI-H23 lung = test system: NCI-H23 lung
MDA-MB-435 = test system: MDA-MB-435
NCI/ADR-RES ovarian = test system: NCI/ADR-RES ovarian
MALME-3M melanoma = test system: MALME-3M melanoma
OVCAR-5 ovarian = test system: OVCAR-5 ovarian
DU-145 prostate = test system: DU-145 prostate
SK-OV-3 ovarian = test system: SK-OV-3 ovarian
T-47D breast = test system: T-47D breast
NCI-H460 lung = test system: NCI-H460 lung
SNB-75 CNS = test system: SNB-75 CNS
PC-3 prostate = test system: PC-3 prostate
UO-31 renal = test system: UO-31 renal
SF-539 CNS = test system: SF-539 CNS
ACHN renal = test system: ACHN renal
TK-10 renal = test system: TK-10 renal
EKVX NSCLC = test system: EKVX NSCLC
KM12 colon = test system: KM12 colon
HT29 colon = test system: HT29 colon
A549 NSCLC = test system: A549 NSCLC
LOX IMVI melanoma = test system: LOX IMVI melanoma
MOLT-4 leukemia = test system: MOLT-4 leukemia
IGROV1 ovarian = test system: IGROV1 ovarian
SF-268 CNS = test system: SF-268 CNS
SNB-19 CNS = test system: SNB-19 CNS
CCRF-CEM leukemia = test system: CCRF-CEM leukemia

SMILES: Cc1cc(-c2cc(O)ccc2Cl)cc2nnc(Nc3ccc(OCCN4CCCC4)cc3)nc12
- GI50 (M14 melanoma): 326 nM
- TGI (M14 melanoma): 1190 nM
- GI50 (786-0 renal): 186 nM
- TGI (786-0 renal): 343 nM
- GI50 (RPMI-8226 leukemia): 207 nM
- TGI (RPMI-8226 leukemia): 442 nM
- GI50 (HS 578T breast): 1540 nM
- TGI (HS 578T breast): 3830 nM
- GI50 (UACC-257 melanoma): 1960 nM
- TGI (UACC-257 melanoma): 3910 nM
- GI50 (A498 renal): 1410 nM
- TGI (A498 renal): 2920 nM
- GI50 (OVCAR-4 ovarian): 615 nM
- TGI (OVCAR-4 ovarian): 1300 nM
- GI50 (SK-MEL-2 melanoma): 1700 nM
- TGI (SK-MEL-2 melanoma): 3640 nM
- GI50 (HOP-62 NSCLC): 1880 nM
- TGI (HOP-62 NSCLC): 3790 nM
- GI50 (UACC-62 melanoma): 1700 nM
- TGI (UACC-62 melanoma): 3330 nM
- GI50 (OVCAR-3 ovarian): 1590 nM
- TGI (OVCAR-3 ovarian): 3120 nM
- GI50 (NCI-H522 lung): 710 nM
- TGI (NCI-H522 lung): 2580 nM
- GI50 (NCI-H226 lung): 4710 nM
- TGI (NCI-H226 lung): 7120 nM
- GI50 (RXF 393 renal): 1200 nM
- TGI (RXF 393 renal): 2610 nM
- GI50 (U251 CNS): 194 nM
- TGI (U251 CNS): 372 nM
- GI50 (MCF7 breast): 179 nM
- TGI (MCF7 breast): 356 nM
- GI50 (CAKI-1 renal): 1540 nM
- TGI (CAKI-1 renal): 2970 nM
- GI50 (HOP-92 NSCLC): 1100 nM
- TGI (HOP-92 NSCLC): 2590 nM
- GI50 (HCT-15 colon): 183 nM
- TGI (HCT-15 colon): 360 nM
- GI50 (HCC-2998 colon): 1940 nM
- TGI (HCC-2998 colon): 3660 nM
- GI50 (SW-620 colon): 205 nM
- TGI (SW-620 colon): 399 nM
- GI50 (OVCAR-8 ovarian): 705 nM
- TGI (OVCAR-8 ovarian): 1560 nM
- GI50 (SK-MEL-28 melanoma): 292 nM
- TGI (SK-MEL-28 melanoma): 843 nM
- GI50 (BT-549 breast): 1450 nM
- TGI (BT-549 breast): 3160 nM
- GI50 (SF-295 CNS): 1700 nM
- TGI (SF-295 CNS): 3320 nM
- GI50 (COLO 205 colon): 2080 nM
- TGI (COLO 205 colon): 4290 nM
- GI50 (MDA-MB-231 breast): 299 nM
- TGI (MDA-MB-231 breast): 967 nM
- GI50 (SK-MEL-5 melanoma): 1750 nM
- TGI (SK-MEL-5 melanoma): 3370 nM
- GI50 (HL-60(TB) leukemia): 305 nM
- TGI (HL-60(TB) leukemia): 627 nM
- GI50 (SR leukemia): 239 nM
- TGI (SR leukemia): 595 nM
- GI50 (HCT-116 colon): 180 nM
- TGI (HCT-116 colon): 341 nM
- GI50 (SN12C renal): 1470 nM
- TGI (SN12C renal): 3030 nM
- GI50 (K-562 leukemia): 44.3 nM
- TGI (K-562 leukemia): 245 nM
- GI50 (NCI-H23 lung): 812 nM
- TGI (NCI-H23 lung): 2480 nM
- GI50 (MDA-MB-435): 175 nM
- TGI (MDA-MB-435): 321 nM
- GI50 (NCI/ADR-RES ovarian): 682 nM
- TGI (NCI/ADR-RES ovarian): 1610 nM
- GI50 (MALME-3M melanoma): 190 nM
- TGI (MALME-3M melanoma): 426 nM
- GI50 (OVCAR-5 ovarian): 1650 nM
- TGI (OVCAR-5 ovarian): 3140 nM
- GI50 (DU-145 prostate): 206 nM
- TGI (DU-145 prostate): 419 nM
- GI50 (SK-OV-3 ovarian): 1300 nM
- TGI (SK-OV-3 ovarian): 2800 nM
- GI50 (T-47D breast): 1660 nM
- TGI (T-47D breast): 3950 nM
- GI50 (NCI-H460 lung): 579 nM
- TGI (NCI-H460 lung): 1120 nM
- GI50 (SNB-75 CNS): 824 nM
- TGI (SNB-75 CNS): 2220 nM
- GI50 (PC-3 prostate): 424 nM
- TGI (PC-3 prostate): 1540 nM
- GI50 (UO-31 renal): 1300 nM
- TGI (UO-31 renal): 2730 nM
- GI50 (SF-539 CNS): 1040 nM
- TGI (SF-539 CNS): 2320 nM
- GI50 (ACHN renal): 1430 nM
- TGI (ACHN renal): 2830 nM
- GI50 (TK-10 renal): 1390 nM
- TGI (TK-10 renal): 3000 nM
- GI50 (EKVX NSCLC): 1570 nM
- TGI (EKVX NSCLC): 3270 nM
- GI50 (KM12 colon): 617 nM
- TGI (KM12 colon): 1320 nM
- GI50 (HT29 colon): 1930 nM
- TGI (HT29 colon): 3910 nM
- GI50 (A549 NSCLC): 1360 nM
- TGI (A549 NSCLC): 3480 nM
- GI50 (LOX IMVI melanoma): 1570 nM
- TGI (LOX IMVI melanoma): 3250 nM
- GI50 (MOLT-4 leukemia): 251 nM
- TGI (MOLT-4 leukemia): 634 nM
- GI50 (IGROV1 ovarian): 1630 nM
- TGI (IGROV1 ovarian): 3570 nM
- GI50 (SF-268 CNS): 1990 nM
- TGI (SF-268 CNS): 3910 nM
- GI50 (SNB-19 CNS): 659 nM
- TGI (SNB-19 CNS): 1230 nM
- GI50 (CCRF-CEM leukemia): 242 nM
- TGI (CCRF-CEM leukemia): 634 nM
